Measurements published in PubChem BioAssay (NCI).
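Where inhibition never reached the appropriate level, the endpoint shown equals the highest concentration tested. Otherwise, values were interpolated linearly from a five-concentration, 48-hour dose response in 96-well plates. The concentration for full growth arrest is given as TGI.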

How the values were obtained:
Experiment in all cases: inhibition of tumour cell growth, NCI panel, 48 h
RPMI-8226 leukemia = tested on: RPMI-8226 leukemia
IGROV1 ovarian = tested on: IGROV1 ovarian
MALME-3M melanoma = tested on: MALME-3M melanoma
HS 578T breast = tested on: HS 578T breast
MDA-MB-231 breast = tested on: MDA-MB-231 breast
SK-MEL-2 melanoma = tested on: SK-MEL-2 melanoma
OVCAR-5 ovarian = tested on: OVCAR-5 ovarian
BT-549 breast = tested on: BT-549 breast
DU-145 prostate = tested on: DU-145 prostate
SF-539 CNS = tested on: SF-539 CNS
SW-620 colon = tested on: SW-620 colon
SNB-19 CNS = tested on: SNB-19 CNS
NCI-H522 lung = tested on: NCI-H522 lung
SF-295 CNS = tested on: SF-295 CNS
786-0 renal = tested on: 786-0 renal
ACHN renal = tested on: ACHN renal
HOP-92 NSCLC = tested on: HOP-92 NSCLC
HCT-116 colon = tested on: HCT-116 colon
UACC-62 melanoma = tested on: UACC-62 melanoma
MDA-MB-435 = tested on: MDA-MB-435
MDA-N = tested on: MDA-N
HT29 colon = tested on: HT29 colon
SK-MEL-5 melanoma = tested on: SK-MEL-5 melanoma
HCC-2998 colon = tested on: HCC-2998 colon
M14 melanoma = tested on: M14 melanoma
HCT-15 colon = tested on: HCT-15 colon
MOLT-4 leukemia = tested on: MOLT-4 leukemia
EKVX NSCLC = tested on: EKVX NSCLC
SF-268 CNS = tested on: SF-268 CNS
SN12C renal = tested on: SN12C renal
CAKI-1 renal = tested on: CAKI-1 renal
UACC-257 melanoma = tested on: UACC-257 melanoma
SK-OV-3 ovarian = tested on: SK-OV-3 ovarian
MCF7 breast = tested on: MCF7 breast
LOX IMVI melanoma = tested on: LOX IMVI melanoma
TK-10 renal = tested on: TK-10 renal
T-47D breast = tested on: T-47D breast
RXF 393 renal = tested on: RXF 393 renal
CCRF-CEM leukemia = tested on: CCRF-CEM leukemia
HL-60(TB) leukemia = tested on: HL-60(TB) leukemia
PC-3 prostate = tested on: PC-3 prostate
A498 renal = tested on: A498 renal
OVCAR-8 ovarian = tested on: OVCAR-8 ovarian
OVCAR-4 ovarian = tested on: OVCAR-4 ovarian
NCI-H460 lung = tested on: NCI-H460 lung
NCI/ADR-RES ovarian = tested on: NCI/ADR-RES ovarian
U251 CNS = tested on: U251 CNS
KM12 colon = tested on: KM12 colon
COLO 205 colon = tested on: COLO 205 colon
HOP-62 NSCLC = tested on: HOP-62 NSCLC
NCI-H23 lung = tested on: NCI-H23 lung
SK-MEL-28 melanoma = tested on: SK-MEL-28 melanoma
A549 NSCLC = tested on: A549 NSCLC
OVCAR-3 ovarian = tested on: OVCAR-3 ovarian
NCI-H226 lung = tested on: NCI-H226 lung
UO-31 renal = tested on: UO-31 renal
SNB-75 CNS = tested on: SNB-75 CNS
K-562 leukemia = tested on: K-562 leukemia

SMILES: CC1(C)Cc2c(c3ccccc3c3nc4c(nc23)c2c(c3ccccc34)OC(C)(C)C2)O1
- TGI (RPMI-8226 leukemia): > 100 µM
- TGI (IGROV1 ovarian): > 100 µM
- TGI (MALME-3M melanoma): > 100 µM
- TGI (HS 578T breast): > 100 µM
- TGI (MDA-MB-231 breast): > 100 µM
- TGI (SK-MEL-2 melanoma): > 100 µM
- TGI (OVCAR-5 ovarian): > 100 µM
- TGI (BT-549 breast): > 100 µM
- TGI (DU-145 prostate): > 100 µM
- TGI (SF-539 CNS): > 100 µM
- TGI (SW-620 colon): > 100 µM
- TGI (SNB-19 CNS): > 100 µM
- TGI (NCI-H522 lung): > 100 µM
- TGI (SF-295 CNS): > 100 µM
- TGI (786-0 renal): > 100 µM
- TGI (ACHN renal): > 100 µM
- TGI (HOP-92 NSCLC): > 100 µM
- TGI (HCT-116 colon): > 100 µM
- TGI (UACC-62 melanoma): > 100 µM
- TGI (MDA-MB-435): > 100 µM
- TGI (MDA-N): > 100 µM
- TGI (HT29 colon): > 100 µM
- TGI (SK-MEL-5 melanoma): > 100 µM
- TGI (HCC-2998 colon): > 100 µM
- TGI (M14 melanoma): > 100 µM
- TGI (HCT-15 colon): > 100 µM
- TGI (MOLT-4 leukemia): > 100 µM
- TGI (EKVX NSCLC): > 100 µM
- TGI (SF-268 CNS): > 100 µM
- TGI (SN12C renal): > 100 µM
- TGI (CAKI-1 renal): > 100 µM
- TGI (UACC-257 melanoma): > 100 µM
- TGI (SK-OV-3 ovarian): > 100 µM
- TGI (MCF7 breast): > 100 µM
- TGI (LOX IMVI melanoma): > 100 µM
- TGI (TK-10 renal): > 100 µM
- TGI (T-47D breast): > 100 µM
- TGI (RXF 393 renal): > 100 µM
- TGI (CCRF-CEM leukemia): > 100 µM
- TGI (HL-60(TB) leukemia): > 100 µM
- TGI (PC-3 prostate): > 100 µM
- TGI (A498 renal): > 100 µM
- TGI (OVCAR-8 ovarian): > 100 µM
- TGI (OVCAR-4 ovarian): > 100 µM
- TGI (NCI-H460 lung): > 100 µM
- TGI (NCI/ADR-RES ovarian): > 100 µM
- TGI (U251 CNS): > 100 µM
- TGI (KM12 colon): > 100 µM
- TGI (COLO 205 colon): > 100 µM
- TGI (HOP-62 NSCLC): > 100 µM
- TGI (NCI-H23 lung): > 100 µM
- TGI (SK-MEL-28 melanoma): > 100 µM
- TGI (A549 NSCLC): > 100 µM
- TGI (OVCAR-3 ovarian): > 100 µM

SMILES: O=C(CCN1CCOCC1)c1ccc(Oc2ccc(F)cc2)cc1
- TGI (IGROV1 ovarian): 39.4 µM
- TGI (MALME-3M melanoma): 40.9 µM
- TGI (HS 578T breast): 40.8 µM
- TGI (MDA-MB-231 breast): 39 µM
- TGI (SK-MEL-2 melanoma): 57.1 µM
- TGI (OVCAR-5 ovarian): 54.2 µM
- TGI (BT-549 breast): 35.9 µM
- TGI (DU-145 prostate): > 100 µM
- TGI (SF-539 CNS): 38.7 µM
- TGI (SW-620 colon): 62.6 µM
- TGI (SNB-19 CNS): > 100 µM
- TGI (SF-295 CNS): > 100 µM
- TGI (786-0 renal): 30.8 µM
- TGI (ACHN renal): 32.1 µM
- TGI (NCI-H226 lung): 78 µM
- TGI (HOP-92 NSCLC): 49.5 µM
- TGI (HCT-116 colon): 44.2 µM
- TGI (UACC-62 melanoma): 37 µM
- TGI (MDA-MB-435): > 100 µM
- TGI (MDA-N): 52.3 µM
- TGI (HT29 colon): 34.2 µM
- TGI (SK-MEL-5 melanoma): > 100 µM
- TGI (HCC-2998 colon): > 100 µM
- TGI (M14 melanoma): 38.3 µM
- TGI (HCT-15 colon): 36.5 µM
- TGI (MOLT-4 leukemia): 55.2 µM
- TGI (EKVX NSCLC): 36.9 µM
- TGI (SN12C renal): > 100 µM
- TGI (CAKI-1 renal): 33 µM
- TGI (UACC-257 melanoma): 32.9 µM
- TGI (UO-31 renal): 38.3 µM
- TGI (SK-OV-3 ovarian): > 100 µM
- TGI (MCF7 breast): 40.4 µM
- TGI (LOX IMVI melanoma): 48.5 µM
- TGI (TK-10 renal): 32.5 µM
- TGI (T-47D breast): 42.6 µM
- TGI (SNB-75 CNS): 46.2 µM
- TGI (K-562 leukemia): 51.4 µM
- TGI (CCRF-CEM leukemia): 57.1 µM
- TGI (HL-60(TB) leukemia): 78.7 µM
- TGI (PC-3 prostate): 34.2 µM
- TGI (A498 renal): > 100 µM
- TGI (OVCAR-8 ovarian): 41.7 µM
- TGI (OVCAR-4 ovarian): > 100 µM
- TGI (NCI-H460 lung): > 100 µM
- TGI (NCI/ADR-RES ovarian): 69 µM
- TGI (U251 CNS): > 100 µM
- TGI (KM12 colon): 32.6 µM
- TGI (COLO 205 colon): 47 µM
- TGI (HOP-62 NSCLC): > 100 µM
- TGI (NCI-H23 lung): 70.4 µM
- TGI (SK-MEL-28 melanoma): 52.2 µM
- TGI (A549 NSCLC): > 100 µM
- TGI (OVCAR-3 ovarian): 50.7 µM
